Laboratory results taken from publication PMC8365602 (Journal of Medicinal Chemistry, 2021).
Read-outs that look alike come from different tables or passages of the source.

Assays:
5-LOX [1] = target: T1, 5-LOX (Homo sapiens, UniProt P09917); experiment: Cell-free 5-LOX activity (isolated human recombinant enzyme)
T1 sequence (P09917 1-674): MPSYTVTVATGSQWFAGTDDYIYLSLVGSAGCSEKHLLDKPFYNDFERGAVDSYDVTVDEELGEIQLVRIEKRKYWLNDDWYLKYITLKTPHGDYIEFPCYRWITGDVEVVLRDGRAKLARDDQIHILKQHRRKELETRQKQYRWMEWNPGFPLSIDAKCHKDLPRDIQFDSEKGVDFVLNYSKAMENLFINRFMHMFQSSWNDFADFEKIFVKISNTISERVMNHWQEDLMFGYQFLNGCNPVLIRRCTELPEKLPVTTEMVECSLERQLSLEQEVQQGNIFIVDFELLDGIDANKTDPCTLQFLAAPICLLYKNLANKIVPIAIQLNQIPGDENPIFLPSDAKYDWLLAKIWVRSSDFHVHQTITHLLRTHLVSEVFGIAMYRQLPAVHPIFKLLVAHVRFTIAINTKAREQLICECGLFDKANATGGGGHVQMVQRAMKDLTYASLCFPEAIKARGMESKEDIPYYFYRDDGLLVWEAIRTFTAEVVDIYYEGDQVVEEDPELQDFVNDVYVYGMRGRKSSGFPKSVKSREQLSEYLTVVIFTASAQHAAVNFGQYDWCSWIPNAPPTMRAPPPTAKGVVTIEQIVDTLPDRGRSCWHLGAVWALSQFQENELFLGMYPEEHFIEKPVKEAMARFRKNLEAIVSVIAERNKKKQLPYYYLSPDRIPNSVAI
Procedure: Human recombinant 5-LOX was expressed in E. coli Bl21 (DE3) cells that were transformed with pT3–5LOX (wt 5-LOX), 5-LOX_3W (triple mutation of Trp102Ala/Trp13Ala/Trp75Ala), or 5-LOX_R (single mutant of the Arg101Asp plasmid) and purified on an ATP-agarose column (Econo-Pac, Bio-Rad, Hercules, CA) by affinity chromatography.[6],[75]
Purified 5-LOX (0.5 μg in PBS pH 7.4 containing 1 mM EDTA and 1 mM ATP) was preincubated with the vehicle (DMSO) or test compounds for 10 min and prewarmed at 37 °C.

5-LOX [2] = target: T1, 5-LOX; design: made in house; host or cells: E. coli Bl21 (DE3); conditions: supplementary csv; # published in ref Pein et al.4; read-out: IC50 (5-LOX enzyme); cited from earlier work
5-LOX [3] = target: T1, 5-LOX; conditions: supplementary csv; # published in ref Pein et al.4; read-out: IC50 (5-LOX PMNL); cited from earlier work
5-LOX [4] = target: T1, 5-LOX; experiment: 5-LOX product formation in activated PMNL; conditions: for remaining activity at 3 µM: PMNL; for IC50: read-out: 5-LOX PMNL IC50, 5-LOX product formation in activated PMNL, mean ± SEM;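 on all read-outs here: freshly isolated human PMNL in PBS pH 7.4 plus glucose, preincubated 10 min at 37 °C with compound, 5-LOX products (all-trans LTB4 isomers, 5-HETE) quantified by RP-HPLC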
Procedure: These volunteers regularly donated blood (every 8–12 weeks) and were physically inspected by a clinician.
Erythrocytes were removed by dextran sedimentation and hypotonic lysis. PMNL were obtained from the cell pellet and platelets from the supernatant.
Freshly isolated PMNL (5 × 10^6) suspended in PBS pH 7.4 with 1 mg/mL glucose or freshly withdrawn human whole blood were preincubated with the test compounds for 10 min (or as indicated) at 37 °C. […] The reaction was stopped with an equal volume of methanol.

[5] = tested on: zymosan-induced murine peritonitis; experiment: Zymosan-induced peritonitis in mice; assay type: in vivo; conditions: 3 mg/kg p.o., 30 min post zymosan
Procedure: Male CD-1 mice (33–39 g, 6–8 weeks, Charles River Laboratories; Calco, Italy) and female BALB/c mice (20 g, 8 weeks, Charles River Laboratories) were fed with standard rodent chow and water and acclimated for 4 days at a 12 h light and 12 h dark schedule in a constant air-conditioned environment (21 ± 2 °C). Mice were randomly assigned to groups, and experiments were carried out during the light phase.
Zymosan (2 mg/mL in saline, i.p., 0.5 mL, Sigma-Aldrich) was injected at 30 min (i.p.) or 60 min (p.o.) post compound administration. Mice were sacrificed by inhalation of CO2 after another 30 min to determine LTC4 levels, lipid mediator profiles, metabolites, and vascular permeability and after 4 h to analyze LTB4 levels and cell infiltration.[72] Plasma and peritoneal exudates were collected, and cells were counted in exudates after trypan blue staining. Vascular permeability was measured by injection of Evans blue dye (40 mg/kg in saline, 0.3 mL, Sigma-Aldrich) into the tail vain directly before peritonitis induction.[72] The exudate was centrifuged (3000g, 5 min), and the absorbance was measured at 610 nm (DU730 spectrophotometer, Beckman Coulter, Krefeld, Germany). Levels of LTB4 and cysteinyl-LTs (dominated by LTC4) were quantified in the exudate by ELISA (Enzo Life Sciences, Lörrach, Germany) according to the manufacturer’s instructions. Compound 27a, its metabolites, and lipid mediators were extracted and analyzed by UPLC-MS/MS.

[6] = read-out: 5-LOX enzyme residual activity at 1 µM (Table S1)
[7] = read-out: 5-LOX PMNL residual activity at 3 µM (Table S1)
[8] = read-out: 5-LOX enzyme residual activity at 1 μM
[9] = read-out: 5-LOX PMNL residual activity at 3 μM
[10] = read-out: 5-LOX enzyme IC50, isolated human 5-LOX, cell-free, mean ± SEM

Structure (SMILES)	remaining activity at 1 µM (5-LOX [1]; [6])	IC50 (5-LOX [2])	IC50 (5-LOX [3])	remaining activity at 3 µM (5-LOX [4]; [7])	Cysteinyl-LTs in the exudate [5]	IC50 (5-LOX [1])	remaining activity at 1 µM (5-LOX [1]; [8])	remaining activity at 3 µM (5-LOX [4]; [9])	IC50 (5-LOX [4])	IC50 (5-LOX [1]; [10])
C/C(=C\CC/C(C)=C/CC/C(C)=C/CC[C@]1(C)CCc2c(C)c(O)c(C)c(C)c2O1)CO [Compound 10a]	0.2 ± 0.1%	110 ± 10 nM	270 ± 100 nM	13.2 ± 2%						
CC(c1cc2ccccc2s1)N(O)C(N)=O (stereo not shown) [zileuton, reference compound]					did not evoke a stronger effect					
C/C(=C/CC/C(C)=C/CC/C(C)=C/CC[C@]1(C)CCc2cc(O)cc(C)c2O1)CO [Compound 10e, δ-(Z)-deoxyamplexichromanol]	0.3 ± 0.2%	140 ± 30 nM	220 ± 40 nM	2 ± 0.2%						
CC(C)=CCC/C(C)=C/CC/C(C)=C/CC[C@]1(C)CCc2cc(O)c(C)c(C)c2O1 [Compound 6c]	6.4 ± 3.2%	200 ± 60 nM	> 3000 nM	73.5 ± 1.2%						
Cc1cc(O)c(C)c2c1O[C@](C)(CCC[C@H](C)CCC[C@H](C)CCCC(C)C)CC2 [Compound 1b]	32.8 ± 9%	750 ± 150 nM	> 3000 nM	79.6 ± 6.1%						
C/C(=C\CC/C(C)=C/CC/C(C)=C/CC[C@]1(C)CCc2c(C)c(O)cc(C)c2O1)CO [Compound 10b]	0.2 ± 0.1%	90 ± 30 nM	380 ± 90 nM	7.7 ± 1.3%						
Cc1c(C)c2c(c(C)c1O)CC[C@@](C)(CCCC(C)CCCC(C)CCCC(C)CO)O2 (stereo partly drawn) [Compound 9a, α-T-13′-CH2OH]	1.5 ± 0.4%	350 ± 40 nM	190 ± 50 nM	21.6 ± 2.5%						
C/C(=C/CC/C(C)=C/CC/C(C)=C/CC[C@]1(C)CCc2cc(O)c(C)c(C)c2O1)CO [Compound 10d]	0%	120 ± 30 nM	140 ± 20 nM	1.1 ± 1.1%						
Cc1cc(O)cc2c1O[C@](C)(CCC[C@H](C)CCC[C@H](C)CCCC(C)C)CC2 [Compound 1d, δ-tocopherol]	43.3 ± 7.2%		> 3000 nM	107 ± 3.2%		600 ± 250 nM				
CC(C)=CCC/C(C)=C/CC/C(C)=C/CC[C@]1(C)CCc2c(C)c(O)c(C)c(C)c2O1 [Compound 6a]	16.9 ± 6.6%		> 3000 nM	75.5 ± 4.5%						
CC(C)=CCC/C(C)=C/CC/C(C)=C/CC[C@]1(C)CCc2cc(O)cc(C)c2O1 [Compound 6d, δ-tocotrienol]	6.7 ± 3.1%	170 ± 100 nM	> 3000 nM	74.9 ± 8%						
Cc1c(C)c2c(c(C)c1O)CC[C@@](C)(CCC[C@H](C)CCC[C@H](C)CCCC(C)C)O2 [Compound 1a, α-tocopherol]	86.1 ± 8.3%	> 1000 nM	> 3000 nM	88.6 ± 10.5%						
CC(C)=CCC/C(C)=C/CC/C(C)=C/CC[C@]1(C)CCc2c(C)c(O)cc(C)c2O1 [Compound 6b]	6.4 ± 3.2%	190 ± 30 nM	2110 ± 360 nM	41.4 ± 8%						
C/C(=C\CC/C(C)=C/CC/C(C)=C/CC[C@]1(C)CCc2cc(O)cc(C)c2O1)CO [Compound 10c]	2.7 ± 1.5%	150 ± 50 nM	1260 ± 330 nM	8.8 ± 1.9%						
Cc1c(O)cc2c(c1C)O[C@](C)(CCC[C@H](C)CCC[C@H](C)CCCC(C)C)CC2 [Compound 1c]	47 ± 4.5%	910 ± 150 nM	> 3000 nM	78.5 ± 13.6%						
C/C(=C\CC/C(C)=C/CC[C@]1(C)CCc2cc(O)c(C)c(C)c2O1)CCC=C(CO)CO [Compound 27c]							0.1 ± 0.1%	0.8 ± 0.2%	50 ± 40 nM	
Cc1cc(O)cc2c1O[C@](C)(CCCC(C)CCCC(C)CCCC(C)CO)CC2 (stereo partly shown) [Compound 9b]	2.1 ± 0.3%	120 ± 40 nM	540 ± 180 nM	22.6 ± 2.4%						
CC(=O)c1cc2c(C)c3c(c(C)c2oc1=O)CC[C@@](C)(CC/C=C(\C)CC/C=C(\C)CCC=C(CO)CO)O3 [Compound 41, (R)-3-Acetyl-7-((3E,7E)-13-hydroxy-12-(hydroxymethyl)-4,8-dimethyltrideca-3,7,11-trien-1-yl)-5,7,10-trimethyl-8,9-dihydropyrano[2,3-g]chromen-2(7H)-one]							35.1 ± 5.7%	12.4 ± 0.7%	1250 ± 200 nM	630 ± 130 nM
Cc1cc(O)cc2c1O[C@](C)(CC/C=C/C(=O)O)CC2 [Compound 17, (2E)-5-[(2R)-6-Hydroxy-2,8-dimethyl-3,4-dihydro-2H-1-benzopyran-2-yl]pent-2-enoic Acid]							65.3 ± 25.2%	101 ± 5.2%	> 3000 nM	> 1000 nM
Cc1cc(O)cc2c1O[C@](C)(CCCC(C)CCCC(C)CCCC(C)C(=O)O)CC2 (stereo partly shown) [Compound 12b]							51.4 ± 3.1%	40.8 ± 3.5%		
COc1ccc(C2OCC(=CCC/C(C)=C/CC/C(C)=C/CC[C@]3(C)CCc4c(C)c(O)c(C=O)c(C)c4O3)CO2)cc1OC (stereo partly shown) [Compound 47]							58.7 ± 4.6%	84 ± 8.5%	> 3000 nM	> 1000 nM
C/C(=C\CC/C(C)=C/CC[C@]1(C)CCc2c(C)c(O)c(C=O)c(C)c2O1)CCC=C(CO)CO [Compound 33]							8.9 ± 3.5%	7.5 ± 2.2%	1380 ± 280 nM	170 ± 50 nM
C/C(=C\CC/C(C)=C/CC[C@]1(C)CCc2c(CN(C)C)c(O)cc(C)c2O1)CCC=C(CO)CO [Compound 36, 2-((4E,8E)-11-((R)-5-((Dimethylamino)methyl)-6-hydroxy-2,8-dimethylchroman-2-yl)-4,8-dimethylundeca-4,8-dien-1-ylidene)propane-1,3-diol]							3.7 ± 0.4%	63.9 ± 14.4%	> 3000 nM	110 ± 20 nM
